Read-outs that look alike come from different tables or passages of the source.
Tests used:
Format in all cases: biochemical
[1] = target: T1, 320 wild-type protein kinases (Homo sapiens, UniProt Q02156); conditions: PKC-epsilon, singlicate
T1 sequence (Q02156 1-737): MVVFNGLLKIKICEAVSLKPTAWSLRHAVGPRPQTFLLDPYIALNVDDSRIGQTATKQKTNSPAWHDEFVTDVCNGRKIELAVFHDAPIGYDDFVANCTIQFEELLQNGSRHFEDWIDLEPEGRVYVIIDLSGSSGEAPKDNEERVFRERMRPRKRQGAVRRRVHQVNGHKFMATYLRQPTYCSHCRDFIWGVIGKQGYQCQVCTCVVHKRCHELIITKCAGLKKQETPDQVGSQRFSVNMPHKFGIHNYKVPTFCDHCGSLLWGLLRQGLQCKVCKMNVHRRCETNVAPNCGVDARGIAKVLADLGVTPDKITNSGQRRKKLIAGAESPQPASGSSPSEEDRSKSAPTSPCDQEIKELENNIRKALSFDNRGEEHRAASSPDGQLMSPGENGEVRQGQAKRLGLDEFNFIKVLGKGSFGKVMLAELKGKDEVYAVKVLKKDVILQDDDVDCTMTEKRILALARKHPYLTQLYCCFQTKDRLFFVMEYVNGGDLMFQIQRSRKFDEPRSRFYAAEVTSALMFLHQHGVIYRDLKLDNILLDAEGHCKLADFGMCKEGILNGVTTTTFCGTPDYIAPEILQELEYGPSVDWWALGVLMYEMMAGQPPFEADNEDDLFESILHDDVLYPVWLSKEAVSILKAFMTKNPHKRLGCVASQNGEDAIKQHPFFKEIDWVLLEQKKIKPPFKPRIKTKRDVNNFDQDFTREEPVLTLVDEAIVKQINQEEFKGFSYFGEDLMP
Text: (§1) Table S4. Profiling of two compounds at two concentrations against 320 wild-type protein kinases; singlicate measurement; Residual activities (% of control).

[2] = target: 320 wild-type protein kinases (Homo sapiens, UniProt Q13131); conditions: singlicate
320 wild-type protein kinases (Homo sapiens, UniProt Q13131), sequence (Q13131 whole entry): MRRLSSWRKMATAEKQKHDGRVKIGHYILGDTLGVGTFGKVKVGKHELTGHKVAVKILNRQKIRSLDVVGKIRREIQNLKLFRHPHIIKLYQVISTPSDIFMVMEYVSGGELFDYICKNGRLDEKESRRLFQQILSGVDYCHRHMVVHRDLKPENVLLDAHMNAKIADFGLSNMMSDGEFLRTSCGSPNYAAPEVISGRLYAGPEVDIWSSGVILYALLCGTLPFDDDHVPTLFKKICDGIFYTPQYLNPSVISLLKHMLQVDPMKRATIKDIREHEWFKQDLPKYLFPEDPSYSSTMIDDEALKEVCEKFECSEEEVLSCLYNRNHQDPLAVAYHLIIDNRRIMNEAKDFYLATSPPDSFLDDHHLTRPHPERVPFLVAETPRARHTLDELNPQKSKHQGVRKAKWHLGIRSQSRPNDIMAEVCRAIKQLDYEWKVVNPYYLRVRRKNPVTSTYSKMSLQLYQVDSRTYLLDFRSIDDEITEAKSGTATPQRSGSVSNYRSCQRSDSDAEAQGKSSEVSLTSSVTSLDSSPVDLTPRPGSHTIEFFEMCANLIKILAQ
Text: as §1

[3] = target: T2, 320 wild-type protein kinases (Homo sapiens, UniProt P29322); conditions: singlicate
T2 sequence (P29322 28-1005): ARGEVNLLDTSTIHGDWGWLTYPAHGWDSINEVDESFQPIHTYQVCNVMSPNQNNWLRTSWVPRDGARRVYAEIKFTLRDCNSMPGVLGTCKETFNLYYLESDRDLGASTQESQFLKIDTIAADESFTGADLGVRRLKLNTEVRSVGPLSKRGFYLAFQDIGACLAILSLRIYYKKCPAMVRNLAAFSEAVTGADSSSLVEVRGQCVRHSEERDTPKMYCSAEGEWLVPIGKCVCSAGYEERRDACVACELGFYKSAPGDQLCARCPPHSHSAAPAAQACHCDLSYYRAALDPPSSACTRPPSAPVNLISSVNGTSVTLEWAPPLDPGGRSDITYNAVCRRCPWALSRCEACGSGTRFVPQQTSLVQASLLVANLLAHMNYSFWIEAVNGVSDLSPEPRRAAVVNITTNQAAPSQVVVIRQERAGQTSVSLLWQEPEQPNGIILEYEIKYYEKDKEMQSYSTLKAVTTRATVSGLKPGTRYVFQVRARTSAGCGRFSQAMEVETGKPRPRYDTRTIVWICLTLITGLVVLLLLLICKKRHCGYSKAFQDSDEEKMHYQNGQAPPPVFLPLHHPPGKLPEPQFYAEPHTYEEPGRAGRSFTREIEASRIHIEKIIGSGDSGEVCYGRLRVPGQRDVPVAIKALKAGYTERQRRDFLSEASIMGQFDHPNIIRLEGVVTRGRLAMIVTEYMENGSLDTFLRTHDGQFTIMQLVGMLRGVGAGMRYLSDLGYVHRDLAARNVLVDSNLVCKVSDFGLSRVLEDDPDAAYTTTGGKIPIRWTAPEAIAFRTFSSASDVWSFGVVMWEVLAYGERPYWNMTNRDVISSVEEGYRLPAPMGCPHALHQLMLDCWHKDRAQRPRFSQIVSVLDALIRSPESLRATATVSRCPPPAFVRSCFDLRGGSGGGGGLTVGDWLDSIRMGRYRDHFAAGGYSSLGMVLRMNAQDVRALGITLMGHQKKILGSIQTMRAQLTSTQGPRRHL
Text: as §1

[4] = target: 320 wild-type protein kinases (Homo sapiens, UniProt P57059); conditions: kinase SIK1, singlicate
320 wild-type protein kinases (Homo sapiens, UniProt P57059), sequence (P57059 whole entry): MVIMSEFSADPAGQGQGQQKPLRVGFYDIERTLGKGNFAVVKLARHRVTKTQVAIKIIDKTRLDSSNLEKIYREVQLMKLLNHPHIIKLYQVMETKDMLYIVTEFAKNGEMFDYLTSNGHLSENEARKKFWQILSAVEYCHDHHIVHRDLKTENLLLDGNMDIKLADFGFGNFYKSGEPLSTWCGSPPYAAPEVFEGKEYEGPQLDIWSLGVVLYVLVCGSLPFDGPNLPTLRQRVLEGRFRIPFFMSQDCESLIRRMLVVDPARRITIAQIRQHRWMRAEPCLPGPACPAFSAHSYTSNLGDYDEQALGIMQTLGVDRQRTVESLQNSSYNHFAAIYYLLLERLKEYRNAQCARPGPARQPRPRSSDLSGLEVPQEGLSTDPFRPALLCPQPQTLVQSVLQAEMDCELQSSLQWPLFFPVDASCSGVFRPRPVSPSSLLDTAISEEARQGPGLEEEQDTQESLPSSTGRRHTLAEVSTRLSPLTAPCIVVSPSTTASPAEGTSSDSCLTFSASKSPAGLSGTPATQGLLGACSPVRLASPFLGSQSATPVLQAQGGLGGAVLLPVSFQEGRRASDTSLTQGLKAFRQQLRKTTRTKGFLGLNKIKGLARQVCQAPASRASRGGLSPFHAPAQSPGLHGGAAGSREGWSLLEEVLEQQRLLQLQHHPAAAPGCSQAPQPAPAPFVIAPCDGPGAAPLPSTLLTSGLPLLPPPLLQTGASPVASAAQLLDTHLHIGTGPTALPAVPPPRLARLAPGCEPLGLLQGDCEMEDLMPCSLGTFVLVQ
Text: as §1

[5] = target: 320 wild-type protein kinases (Homo sapiens, UniProt P53671); conditions: singlicate
320 wild-type protein kinases (Homo sapiens, UniProt P53671), sequence (P53671 whole entry): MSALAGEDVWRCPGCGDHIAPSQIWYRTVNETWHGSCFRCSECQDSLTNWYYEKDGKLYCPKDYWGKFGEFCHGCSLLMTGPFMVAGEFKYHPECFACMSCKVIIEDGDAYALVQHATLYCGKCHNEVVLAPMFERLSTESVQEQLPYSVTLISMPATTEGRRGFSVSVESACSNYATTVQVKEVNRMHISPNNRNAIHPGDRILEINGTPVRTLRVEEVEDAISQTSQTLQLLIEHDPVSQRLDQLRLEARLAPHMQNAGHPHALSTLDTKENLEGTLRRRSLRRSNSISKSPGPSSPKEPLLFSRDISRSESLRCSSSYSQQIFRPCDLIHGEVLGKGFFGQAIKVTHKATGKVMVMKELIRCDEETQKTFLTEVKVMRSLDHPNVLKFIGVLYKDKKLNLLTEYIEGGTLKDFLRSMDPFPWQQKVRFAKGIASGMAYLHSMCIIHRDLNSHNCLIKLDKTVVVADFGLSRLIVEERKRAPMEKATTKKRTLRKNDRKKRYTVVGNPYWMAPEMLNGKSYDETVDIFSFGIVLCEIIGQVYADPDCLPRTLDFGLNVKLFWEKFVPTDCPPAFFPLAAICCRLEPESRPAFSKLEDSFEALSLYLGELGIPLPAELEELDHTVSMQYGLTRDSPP
Text: as §1

[6] = target: 320 wild-type protein kinases (Homo sapiens, UniProt Q00534); conditions: singlicate
320 wild-type protein kinases (Homo sapiens, UniProt Q00534), sequence (Q00534 whole entry): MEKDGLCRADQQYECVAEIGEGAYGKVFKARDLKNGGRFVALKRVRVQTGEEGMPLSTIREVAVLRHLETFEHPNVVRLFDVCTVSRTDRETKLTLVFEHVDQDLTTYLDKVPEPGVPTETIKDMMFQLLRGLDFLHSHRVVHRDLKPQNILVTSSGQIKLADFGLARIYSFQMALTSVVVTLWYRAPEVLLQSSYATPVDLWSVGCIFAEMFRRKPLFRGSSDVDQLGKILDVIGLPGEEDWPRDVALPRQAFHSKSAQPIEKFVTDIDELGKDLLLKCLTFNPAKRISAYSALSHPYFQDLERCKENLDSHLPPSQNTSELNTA
Text: as §1

[7] = target: 320 wild-type protein kinases (Homo sapiens, UniProt O60566); conditions: BUB1B, singlicate
320 wild-type protein kinases (Homo sapiens, UniProt O60566), sequence (O60566 whole entry): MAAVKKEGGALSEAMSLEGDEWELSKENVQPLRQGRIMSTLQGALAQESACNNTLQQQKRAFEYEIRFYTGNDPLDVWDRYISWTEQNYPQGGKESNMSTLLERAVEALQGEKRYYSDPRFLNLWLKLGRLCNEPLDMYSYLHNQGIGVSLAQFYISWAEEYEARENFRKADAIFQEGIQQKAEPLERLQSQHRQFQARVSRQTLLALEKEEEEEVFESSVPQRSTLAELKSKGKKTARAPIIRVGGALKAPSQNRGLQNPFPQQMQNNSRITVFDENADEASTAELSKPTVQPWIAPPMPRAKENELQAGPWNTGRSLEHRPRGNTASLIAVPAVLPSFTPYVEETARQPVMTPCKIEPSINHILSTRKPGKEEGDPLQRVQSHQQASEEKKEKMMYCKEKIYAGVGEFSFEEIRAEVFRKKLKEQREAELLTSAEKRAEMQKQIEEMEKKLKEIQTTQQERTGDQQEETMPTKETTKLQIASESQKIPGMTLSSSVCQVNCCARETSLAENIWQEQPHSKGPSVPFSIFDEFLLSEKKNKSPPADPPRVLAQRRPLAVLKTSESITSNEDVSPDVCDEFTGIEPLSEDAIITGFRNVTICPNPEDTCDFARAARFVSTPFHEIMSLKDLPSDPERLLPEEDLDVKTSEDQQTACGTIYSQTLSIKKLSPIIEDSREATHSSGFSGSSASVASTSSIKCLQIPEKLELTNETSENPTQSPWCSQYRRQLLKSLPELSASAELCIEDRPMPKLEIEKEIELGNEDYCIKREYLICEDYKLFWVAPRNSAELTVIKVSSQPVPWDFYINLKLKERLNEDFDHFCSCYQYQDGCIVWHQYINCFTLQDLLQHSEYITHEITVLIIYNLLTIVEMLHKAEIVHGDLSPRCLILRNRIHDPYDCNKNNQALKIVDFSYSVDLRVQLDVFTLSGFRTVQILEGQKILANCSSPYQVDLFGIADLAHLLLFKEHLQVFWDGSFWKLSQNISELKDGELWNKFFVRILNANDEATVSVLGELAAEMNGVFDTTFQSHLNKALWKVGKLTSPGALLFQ
Text: as §1

[8] = target: 320 wild-type protein kinases (Homo sapiens, UniProt P00519); conditions: singlicate
320 wild-type protein kinases (Homo sapiens, UniProt P00519), sequence (P00519 whole entry): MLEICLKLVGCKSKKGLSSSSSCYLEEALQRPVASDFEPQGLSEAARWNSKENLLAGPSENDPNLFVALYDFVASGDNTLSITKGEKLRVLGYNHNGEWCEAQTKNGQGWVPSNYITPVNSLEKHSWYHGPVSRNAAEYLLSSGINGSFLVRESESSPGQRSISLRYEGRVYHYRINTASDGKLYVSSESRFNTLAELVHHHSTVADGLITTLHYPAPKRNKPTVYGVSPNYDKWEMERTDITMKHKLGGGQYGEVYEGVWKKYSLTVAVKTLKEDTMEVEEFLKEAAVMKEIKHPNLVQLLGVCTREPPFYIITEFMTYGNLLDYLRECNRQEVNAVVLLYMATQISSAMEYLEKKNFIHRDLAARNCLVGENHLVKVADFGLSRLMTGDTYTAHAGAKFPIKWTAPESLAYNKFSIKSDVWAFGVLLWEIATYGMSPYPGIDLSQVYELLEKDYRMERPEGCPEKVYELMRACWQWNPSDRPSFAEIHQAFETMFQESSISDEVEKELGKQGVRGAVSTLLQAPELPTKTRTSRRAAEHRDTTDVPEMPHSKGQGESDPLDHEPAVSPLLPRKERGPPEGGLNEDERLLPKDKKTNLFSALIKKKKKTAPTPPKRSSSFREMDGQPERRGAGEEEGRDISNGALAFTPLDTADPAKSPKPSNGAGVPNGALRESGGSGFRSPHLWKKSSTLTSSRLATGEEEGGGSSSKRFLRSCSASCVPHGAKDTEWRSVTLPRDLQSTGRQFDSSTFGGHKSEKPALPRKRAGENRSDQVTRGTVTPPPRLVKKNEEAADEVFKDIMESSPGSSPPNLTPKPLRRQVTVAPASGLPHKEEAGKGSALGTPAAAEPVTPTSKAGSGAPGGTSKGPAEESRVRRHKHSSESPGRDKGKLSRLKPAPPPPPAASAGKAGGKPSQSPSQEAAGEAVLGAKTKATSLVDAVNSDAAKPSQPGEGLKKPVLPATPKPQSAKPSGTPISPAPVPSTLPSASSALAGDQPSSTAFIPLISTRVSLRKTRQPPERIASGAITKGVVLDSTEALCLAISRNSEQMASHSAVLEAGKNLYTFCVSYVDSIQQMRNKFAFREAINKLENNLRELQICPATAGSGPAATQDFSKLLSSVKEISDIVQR
Text: as §1

Structure (SMILES) | Residual activity ([1]; 1.0E-06 M) | Residual activity ([1]; 1.0E-07 M) | Residual activity ([2]; AMPK-alpha1 aa1-550, 1.0E-06 M) | Residual activity ([2]; AMPK-alpha1 aa1-550, 1.0E-07 M) | Residual activity ([3]; EPHA8, 1.0E-06 M) | Residual activity ([3]; EPHA8, 1.0E-07 M) | Residual activity, SIK1 ([4]; assay conc. 1.0E-06 M) | Residual activity, SIK1 ([4]; assay conc. 1.0E-07 M) | Residual activity ([5]; LIMK2, 1.0E-06 M) | Residual activity ([5]; LIMK2, 1.0E-07 M) | Residual activity ([6]; CDK6/CycD1, 1.0E-06 M) | Residual activity ([6]; CDK6/CycD1, 1.0E-07 M) | Residual activity ([6]; CDK6/CycD3, 1.0E-06 M) | Residual activity ([6]; CDK6/CycD3, 1.0E-07 M) | Residual activity ([7]; 1.0E-06 M) | Residual activity ([7]; 1.0E-07 M) | Residual activity ([8]; ABL1, 1.0E-06 M) | Residual activity ([8]; ABL1, 1.0E-07 M)
C#Cc1cc(Nc2ncnc3cc(I)ccc23)ccc1Cl [Compound 41] | 89 % of control | 82 % of control | 107 % of control | 106 % of control | 118 % of control | 110 % of control | 77 % of control | 93 % of control | 100 % of control | 92 % of control | 98 % of control | 92 % of control | 103 % of control | 102 % of control | 131 % of control | 122 % of control | 72 % of control | 85 % of control
C#Cc1cc(Nc2ncnc3cc(OC)c(OC)cc23)ccc1Cl [Compound 45] | 88 % of control | 89 % of control | 98 % of control | 91 % of control | 103 % of control | 112 % of control | 87 % of control | 101 % of control | 89 % of control | 94 % of control | 86 % of control | 96 % of control | 105 % of control | 95 % of control | 115 % of control | 137 % of control | 59 % of control | 100 % of control

Source: article PMC9329436, “Optimization of the 4-anilinoquin(az)oline scaffold as epidermal growth factor receptor (EGFR) inhibitors for chordoma utilizing a toxicology profiling assay platform” (Scientific Reports, 2022)
